Consider 11 compounds from patent US6787564B2, “Optically active clausenamides, process of the preparation thereof, pharmaceutical composition containing the same and their medical use” (Institute of Materia Medica, Chinese Academy of Medical …, priority 2002, dated 2004).

The test system of assay [1] is dentate gyrus of hippocampus. The assay is described as follows: induction of LTP in hippocampal of rat (population spike amplitude). It counts as in vivo, SD rats. The note with it: I.C.V.; means ± SD. The source says:
Adult male SD rats were anesthetized to maintain a surgical level. A stainless steel cannula-recording electrode was placed in DG (dentate gyrus) of hippocampus using a stereotaxic instrument. The combination of cannula-recording electrode was constructed by insulating the outside of the cannula, except at the tip and top. In the top noninsulated area, a stainless steel wire was wrapped around the cannula and connected to the amplifier via an amphenol connector. The four pairs optically active clausenamides shown in table 9 was delivered by I.C.V. Responses were evoked via direct stimulation of the performant path (PP) using a stainless steel bipolar stimulating electrode. Constant current stimulation provided by a stimulator was delivered to the stimulating electrode through a Stimulus Isolation Unit.
The stimulating electrode was adjusted until a characteristic EPSP was observed under constant current. The evoked responses were amplified on a series alternating current preamplifier, using a microcomputer, and then stored for off-line analysis using DataWave software. The current intensity that elicited a 50% maximal response in each animal was determined and used for all subsequent stimulation. To measure treatment effects, responses were evoked once every 30 sec throughout the entire experiment, and population spike amplitude(PSA) were calculated.

The subject of assay [2] is Human embryonic neural stem cells. Put plainly: colony-form frequency in human embryonic neural stem cells. It counts as cell-based. To be noted: 1 μM; for Colonies, 6 weeks / Colonies, 4 weeks / Colonies, 3 weeks: N 4; for Colonies, 6 weeks: Control(DMSO) 22.25 ± 4.86; for Colonies, 4 weeks: Control(DMSO) 30.33 ± 4.99; for Colonies, 3 weeks: Mean ± SD, Control(DMSO) 43.00 ± 4.97. As for the experimental part:
Human embryonic brain neural stem cells(NSC) were dissociated enzymatically with 0.05% trypsin-0.53 mM EDTA and cultured in the DMEM/F12 medium with N2 supplement (GIBCO), fibroblast growth factor-2 (20 ng/ml), epidermal growth factor (20 ng/ml) at 37° C. The media were changed once every week. The single cell suspension from neurosphere cells of NSC was dissociated by 0.1% trypsin. 2×10^4 cells were seeded in a well of a 96-well plate. After 24 hours, the dose at 1 μM of tested chemical was added in a well. 6 chemicals, (−)neoclausenamide(−), (+)neoclausenamide(+), (−)epineoclausenamide(−), (+)epineoclausenamide(+), (−)cisneoclausenamide(−) and (+)cisneoclausenamide(+), were detected. 4 wells were used each group. The media with tested chemical were changed once every week. The colonies of NSC were formed and counted under a microscopy at 3 weeks, 4 weeks and 6 weeks.

The subject of assay [3] is animals with anisodine-induced memory impairment. Put plainly: step-through test, memory impairment induced by anisodine. It counts as in vivo. The source says:
(§1) This invention used one trial avoidance task—step-down and step-through tests and water maze to compare the improving memorial effects of (±), (−) clausenamide. The drugs were given orally once to animals before experiment in step-down and step-through tests. The water maze test lasted for 5 days in succession. The results were expressed as latency and errors number.

Assay [4] shares this test system. The assay is described as follows: memory impairment induced by anisodine in water maze test. It counts as in vivo.
Description: as §1

Assay [5] deals with β-AP (25-35)-treated rats. Put plainly: one trial passive avoidance of β-AP (25-35)-treated rats. It counts as in vivo. The note with it: β-AP-treated + vehicle, n = 8, MEAN ± S.E.M.
The test system of assay [6] is A β 25-35 treated rats. Put plainly: Morris water maze, A β 25-35 induced impairment of memory. It is filed as in vivo. To be noted: A β 25-35 alone. The source says: Pathological features of Alzheimer's disease (AD) include extensive neuronal loss and the presence of numerous neurofibrillary tangles and senile plaques in the brain. The senile plaques contain amyloid fibrils derived from a 39-43 amino acids peptide referred to as β-amyloid or A β which can produce neurotoxicity. A β 25-35 poccesses the similar neurotoxicity and ability of self-aggregation as A β 1-42. Administrated aggregated A β 25-35 into rat's lateral cerebral ventricle induced memory impairment in Morris water maze.
With increasing of training days, the initial heading angle became small. On the 3th day, the initial heading angle of A β group was larger than control. […] (see Tab.3)
There are four strategies for finding platform in Morris water maze: random, circle, taxis and line. In the beginning of training the search strategies for finding target is mainly circle and random, with the increasing of training, the percentage of the two strategies declined gradually, Beginning from the 3th day, declining speed in control and (−) clausenamide group was faster than A β,(+) clausenamide and piracetam groups.

The test system of assay [7] is animals. Put plainly: memory in water maze test. It counts as in vivo.
Description: as §1

For assay [8], the system named is dentate gyrus granule cells. The assay is described as follows: basal synaptic transmission / LTP in dentate gyrus of hippocampus in anesthetized rats (population spike amplitude). It is filed as in vivo. To be noted: for decrease of PS amplitude compared with that of (−) clausenamide: 60 min. The text has this: Drugs or vehicle injection were delivered via cannula in the lateral cerebral ventricle at final concentration of 2×10^−6 mol/L. The population spike (PS) amplitude was employed as an indication of the level of excitation of the granular cell population in the dentate gyrus. To obtain this measurement, an evoked response was generated in the dentate gyrus granule cell layer by stimulating the pp at low freguency (0.033 Hz) with. single square wave pulses of 0.15 ms duration The LTP formation must accord the following creteria: The PS amplitude increased is over 30% and this high PS amplitude can persist for 40 min.

Setting [9] is: anisodine + drug 10 mg/kg (Tab 7).
Setting [10] is: anisodine + drug 50 mg/kg (Tab 7).

With `CN1C(=O)[C@@H](O)[C@H]([C@@H](O)c2ccccc2)[C@H]1c1ccccc1` [(+)cisclausenamide, 3S4S5S6R (+)cisclausenamide], in assay [1], the “PSA (%), 15 min” value is 87.3 ± 4.4%; the “PSA (%), 30 min” value is on record as 102.9 ± 5.9%; the “PSA (%), 60 min” value was 122.5 ± 14.5%.

As for `CN1C(=O)[C@H](O)[C@@H]([C@@H](O)c2ccccc2)[C@H]1c1ccccc1` [(+)cisneoclausenamide, 3R4R5S6R (+)cisneoclausenamide], in assay [2], the “frequency of colonies of NSC vs control group at 6 weeks (in words)” value is “not any difference”; the “Colonies, 6 weeks” value is listed as 24.00 ± 4.69; the “Colonies, 4 weeks” value was 42.50 ± 10.01; the “Colonies, 3 weeks” value stood at 47.00 ± 9.03. For the same compound, in assay [1], the “PSA (%), 15 min” value was 135.0 ± 12.9%; the “PSA (%), 30 min” value came out at 150.9 ± 19.9%; the “PSA (%), 60 min” value is given as 192.3 ± 22.4%.

For the compound `CN1C(=O)[C@H](O)[C@H]([C@H](O)c2ccccc2)[C@H]1c1ccccc1` [(+)epiclausenamide, 3R4S5S6S (+)epiclausenamide], in assay [1], the “PSA (%), 15 min” value is listed as 136.0 ± 22.8%; the “PSA (%), 30 min” value worked out at 147.5 ± 15.0%; the “PSA (%), 60 min” value stood at 207.8 ± 12.8%.

Regarding `CN1C(=O)[C@H](O)[C@H]([C@@H](O)c2ccccc2)[C@@H]1c1ccccc1` [(+)epineoclausenamide, 3R4S5R6R(+)epineoclausen amide], in assay [2], the “frequency of colonies of NSC vs control group at 6 weeks (in words)” value was “not any difference”; the “Colonies, 6 weeks” value is given as 26.00 ± 2.94; the “Colonies, 4 weeks” value was 38.50 ± 5.02; the “Colonies, 3 weeks” value worked out at 49.75 ± 10.26.

Consider `CN1C(=O)[C@H](O)[C@@H]([C@H](O)c2ccccc2)[C@@H]1c1ccccc1` [(−)cisclausenamide, 3R4R5R6S (−)cisclausenamide], for which, in assay [1], the “PSA (%), 15 min” value turned out to be 126.2 ± 2.3%; the “PSA (%), 30 min” value is given as 141.2 ± 8.6%; the “PSA (%), 60 min” value was found to be 205.4 ± 24.7%.

As for `CN1C(=O)[C@@H](O)[C@H]([C@H](O)c2ccccc2)[C@@H]1c1ccccc1` [(−)cisneoclausenamide, 3S4S5R6S (−)cisneoclausenamide], in assay [2], the “frequency of colonies of NSC vs control group at 6 weeks (in words)” value is listed as “significantly difference”; the “Colonies, 6 weeks” value came to 33.50 ± 4.20; the “Colonies, 4 weeks” value is reported as 35.25 ± 7.46; the “Colonies, 3 weeks” value is 49.50 ± 5.43. Besides, in assay [1], the “PSA (%), 15 min” value is given as 94.1 ± 6.7%; the “PSA (%), 30 min” value was 98.2 ± 6.6%; the “PSA (%), 60 min” value is 94.9%.

Regarding `CN1C(=O)[C@@H](O)[C@@H]([C@@H](O)c2ccccc2)[C@@H]1c1ccccc1` [(−)epiclausenamide, 3S4R5R6R (−)epiclausenamide], in assay [1], the “PSA (%), 15 min” value is reported as 97.8 ± 21.7%; the “PSA (%), 30 min” value is 91.2 ± 22.5%; the “PSA (%), 60 min” value stood at 117.3 ± 22.5%.

As to `CN1C(=O)[C@@H](O)[C@@H]([C@H](O)c2ccccc2)[C@H]1c1ccccc1` [(−)epineoclausenamide, 3S4R5S6S(−)epineoclausenamide], in assay [2], the “frequency of colonies of NSC vs control group at 6 weeks (in words)” value is on record as “significantly difference”; the “Colonies, 6 weeks” value is given as 32.50 ± 7.05; the “Colonies, 4 weeks” value is given as 36.75 ± 7.59; the “Colonies, 3 weeks” value was determined as 58.00 ± 13.02.

With `CN1[C@@H]2CC(OC(=O)[C@@](O)(CO)c3ccccc3)C[C@H]1[C@@H]1O[C@@H]12` (stereo partly drawn) [Anisodine, reference compound], in assay [3] (anisodine 10 mg/kg alone, 0.9% Nacl 2.0 ± 3.8 (Tab 7)), the Error number was 14.1 ± 8.9. In assay [3] (anisodine 10 mg/kg alone, 0.9% Nacl 152.1 ± 64.2, N = 10 (Tab 7)), this compound returned a Latencies of 35.8 ± 76.4 s. This compound also gave an Errors number in assay [4] (anisodine group alone, 10 animals) of 15.9 ± 11.3.

With “A β 25-35: β-amyloid fragment with neurotoxicity and self-aggregation like A β 1-42; icv injection induces memory impairment (GSNKGAIIGLM; Amyloid-beta protein 42; UniProt P05067 696-706, looked up, fragment)”, in assay [5] (sham-operated + vehicle 0.3 ± 0.12), the “Number of error, Acquisition” value is recorded as 0.9 ± 0.33. Also, in assay [5] (sham-operated + vehicle 1.6 ± 0.42), the “Number of error, Training” value stood at 2.6 ± 0.71. In assay [6] (control 15.4 ± 20.4), the “initial heading angle, training day 5” value is 46.7 ± 19.4. Also, in assay [6] (control 29.6 ± 10.7), the “initial heading angle, training day 4” value came to 60.6 ± 23.8. Moreover, in assay [6] (control 47.3 ± 15.1), the “initial heading angle, training day 3” value was 73.6 ± 20.3. Moreover, the “initial heading angle, training day 2” value in assay [6] (control 76.8 ± 29.8) was determined as 98.7 ± 30.4. Further, the “initial heading angle, training day 1” value in assay [6] (control 93.6 ± 34.6) is reported as 106.3 ± 29.8.

As for “Racemic clausenamide [(±) clausenamide, reference compound]”, the results for the Error number in assay [3] (setting [9]) and in assay [3] (setting [10]) were 11.3 ± 21.5 and 14.4 ± 12.3, respectively. The Latencies in assay [3] (setting [9]) turned out to be 43.0 ± 65.8 s; in assay [3] (setting [10]), 79.9 ± 63.6 s. Moreover, the “Lalencies reaching platform, 3rd day” value is 23.9 ± 22.6 s in assay [7] (10 mg/kg) and 25.7 ± 13.8 s in assay [7] (50 mg/kg). In addition, the “Lalencies reaching platform, 4th day” value was 17.1 ± 14.3 s in assay [7] (10 mg/kg) and 14.6 ± 10.4 s in assay [7] (50 mg/kg). For the same compound, the figures for the “Lalencies reaching platform, Second day” value in assay [7] (10 mg/kg) and in assay [7] (50 mg/kg) were 35.8 ± 35.2 s and 36.6 ± 37.0 s, respectively. For the same compound, the “effect on PS amplitude (in words)” value in assay [8] (2 μM to 10 μM) is on record as “inhibitory effect on PS amplitude”. The “decrease of PS amplitude compared with that of (−) clausenamide” value is given as 44% in assay [8] (first of the two concentrations (2 μM)) and 55% in assay [8] (second of the two concentrations (10 μM)). Besides, in assay [8] ((−) at 2×10^−6 mol/L, (±) up to 5 times that), the “LTP formation (PS amplitude increase over 30% persisting 40 min)” value is “could not induce LTP”. Besides, the Errors number in assay [4] (anisodine + drug 10 mg/kg) is 16.6 ± 23.9; in assay [4] (anisodine + drug 100 mg/kg), 9.11 ± 3.8.
